The experiment deals with L1210 leukemia ip in BDF1 mice, survival T/C. Briefly: NCI In Vivo Anticancer Drug Screen. Data for tumor model L1210 Leukemia (intraperitoneal) in B6D2F1 (BDF1) mice. The following applies: endpoint: mean survival time, higher = longer survival. In a few lines: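 Transplanted-tumor mice were given test agent; controls received vehicle only. Survival readings from the two groups were divided (treated over control).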

The mark [1] stands for this setting: dose: 25.0 mg/kg/injection, schedule: Q01DX009 (ip), vehicle: Klucel (hydroxypropylcellulose) (HPC).
Setting [2] is: dose: 50.0 mg/kg/injection, schedule: Q01DX009 (ip), vehicle: Klucel (hydroxypropylcellulose) (HPC).
Setting [3] is: dose: 100.0 mg/kg/injection, schedule: Q01DX009 (ip), vehicle: Klucel (hydroxypropylcellulose) (HPC).
The mark [4] stands for this setting: dose: 100.0 mg/kg/injection, schedule: Q04DX003 (ip), vehicle: saline.
The mark [5] stands for this setting: dose: 200.0 mg/kg/injection, schedule: Q01DX009 (ip), vehicle: Klucel (hydroxypropylcellulose) (HPC).
Setting [6] is: dose: 50.0 mg/kg/injection, schedule: Q01DX001 (ip), vehicle: carboxymethylcellulose (CMC).
Setting [7] is: dose: 200.0 mg/kg/injection, schedule: Q04DX003 (ip), vehicle: saline.
[8] abbreviates: dose: 400.0 mg/kg/injection, schedule: Q04DX003 (ip), vehicle: saline.
Where [9] appears, read: dose: 100.0 mg/kg/injection, schedule: Q01DX009 (ip), vehicle: saline with Tween-80.
[10] abbreviates: dose: 200.0 mg/kg/injection, schedule: Q01DX009 (ip), vehicle: saline with Tween-80.
Setting [11] is: dose: 100.0 mg/kg/injection, schedule: Q01DX001 (ip), vehicle: other.
[12] abbreviates: dose: 200.0 mg/kg/injection, schedule: Q01DX001 (ip), vehicle: other.

Values joined by “and” are separate entries in the source; they are usually repeats but may differ in a detail not shown here. Equal entries are not always repeated. Inconclusive results and toxic doses are left out.

As to `CN(C)c1ccc(N=Nc2ccncc2)cc1`, the T/C under setting [1] was 98 % of control, the T/C under setting [2] was 98 % of control and the T/C under setting [3] was 94 % of control.

Regarding `C[S+](C)CCCCCC[S+](C)C`, under setting [4], the T/C is 102 % of control.

Turning to `C/C(=C\C(C)(C)C(C)(C)C)C(C)(C)C`, the T/C (dose: 50.0 mg/kg/injection, schedule: Q04DX002 (ip), vehicle: saline with Tween-80) was 100 % of control; the T/C (dose: 100.0 mg/kg/injection, schedule: Q04DX002 (ip), vehicle: saline with Tween-80) is 95 % of control; the T/C (dose: 200.0 mg/kg/injection, schedule: Q04DX002 (ip), vehicle: saline with Tween-80) was 92 % of control; the T/C (dose: 400.0 mg/kg/injection, schedule: Q04DX002 (ip), vehicle: saline with Tween-80) is 92 % of control.

`CS(=O)(=O)OCC(=O)NCC(O)CNC(=O)COS(C)(=O)=O`: the T/C was 151 % of control (dose: 75.0 mg/kg/injection, schedule: Q01DX015 (ip), vehicle: saline); 153 % of control (dose: 80.0 mg/kg/injection, schedule: Q01DX009 (ip), vehicle: saline); 180 % of control (dose: 120.0 mg/kg/injection, schedule: Q01DX009 (ip), vehicle: saline); 164 % of control (dose: 150.0 mg/kg/injection, schedule: Q01DX015 (ip), vehicle: saline); 156 % of control and 164 % of control (dose: 180.0 mg/kg/injection, schedule: Q01DX009 (ip), vehicle: saline).

`COc1cc(-c2cc(-c3ccccc3)c3cc(Cl)ccc3n2)cc(OC)c1OC`: the T/C is 90 % of control under setting [2], 88 % of control under setting [3] and 93 % of control under setting [5].

As for `C[C@]12CC[C@H]3[C@@H](CC[C@]4(O)C[C@@H](O)CC[C@]34C=O)[C@@]1(O)CC[C@@H]2C1=CC(=O)OC1`, the T/C by setting is: (dose: 12.5 mg/kg/injection, schedule: Q01DX009 (ip), vehicle: Klucel (hydroxypropylcellulose) (HPC)) 102 % of control; under setting [1], 104 % of control; under setting [6], 98 % of control; under setting [2], 102 % of control; (dose: 50.0 mg/kg/injection, schedule: Q01DX009 (ip), vehicle: carboxymethylcellulose (CMC)) 103 % of control; (dose: 75.0 mg/kg/injection, schedule: Q04DX003 (ip), vehicle: Klucel (hydroxypropylcellulose) (HPC)) 102 % of control. In addition, the T/C by setting is: (dose: 100.0 mg/kg/injection, schedule: Q01DX001 (ip), vehicle: carboxymethylcellulose (CMC)) 96 % of control; under setting [3], 109 % of control; (dose: 100.0 mg/kg/injection, schedule: Q01DX009 (ip), vehicle: carboxymethylcellulose (CMC)) 108 % of control; (dose: 150.0 mg/kg/injection, schedule: Q04DX003 (ip), vehicle: Klucel (hydroxypropylcellulose) (HPC)) 98 % of control; (dose: 200.0 mg/kg/injection, schedule: Q01DX001 (ip), vehicle: carboxymethylcellulose (CMC)) 93 % of control; under setting [5], 112 % of control. Under “dose: 300.0 mg/kg/injection, schedule: Q04DX003 (ip), vehicle: Klucel (hydroxypropylcellulose) (HPC)”, the T/C was 101 % of control.

For `CC1(C)CC(=O)c2c(cc3c(c2O)C(=O)CC(C)(C)O3)O1`, the T/C is 94 % of control (dose: 100.0 mg/kg/injection, schedule: Q01DX009 (ip), vehicle: saline); 100 % of control under setting [4]; 94 % of control (dose: 200.0 mg/kg/injection, schedule: Q01DX009 (ip), vehicle: saline); 94 % of control under setting [7]; 95 % of control (dose: 400.0 mg/kg/injection, schedule: Q01DX009 (ip), vehicle: saline); 106 % of control under setting [8].

With `C/C(=N/OC(=O)N(C)C)c1cccc(Cl)c1`, the T/C is 95 % of control and 103 % of control (dose: 44.0 mg/kg/injection, schedule: Q01DX001 (ip), vehicle: saline); 95 % of control and 101 % of control (dose: 66.0 mg/kg/injection, schedule: Q01DX001 (ip), vehicle: saline); 94 % of control and 95 % of control (dose: 100.0 mg/kg/injection, schedule: Q01DX001 (ip), vehicle: saline); 101 % of control and 112 % of control (dose: 150.0 mg/kg/injection, schedule: Q01DX001 (ip), vehicle: saline); 97 % of control (dose: 200.0 mg/kg/injection, schedule: Q01DX001 (ip), vehicle: saline); 103 % of control (dose: 400.0 mg/kg/injection, schedule: Q01DX001 (ip), vehicle: saline).

With `NC(CSS(=O)(=O)O)=NC1CCCC1`, the T/C is 107 % of control (dose: 12.5 mg/kg/injection, schedule: Q01DX001 (ip), vehicle: carboxymethylcellulose (CMC)); 101 % of control (dose: 25.0 mg/kg/injection, schedule: Q01DX001 (ip), vehicle: carboxymethylcellulose (CMC)); 102 % of control under setting [6].

As for `COc1ccc([N+](=O)[O-])cc1NC(=O)Nc1ccccc1C(N)=O`, the T/C is 105 % of control under setting [2], 101 % of control under setting [3] and 97 % of control under setting [5].

As to `Cn1c(NCC[N+](C)(C)C)nc2ncncc21`, the T/C reads like this: (dose: 15.0 mg/kg/injection, schedule: Q01DX001 (ip), vehicle: saline) 90 % of control; (dose: 30.0 mg/kg/injection, schedule: Q01DX001 (ip), vehicle: saline) 93 % of control; (dose: 60.0 mg/kg/injection, schedule: Q01DX001 (ip), vehicle: saline) 95 % of control.

For the compound `Clc1ccc(Cl)c(Nc2ccnc(SCc3ccccc3)n2)c1`, the T/C (dose: 100.0 mg/kg/injection, schedule: Q01DX Z (ip), vehicle: methylcellulose (MC)) is 92 % of control and the T/C (dose: 200.0 mg/kg/injection, schedule: Q01DX Z (ip), vehicle: methylcellulose (MC)) is 88 % of control.

Consider `Cc1ccc(C(=O)OCC2OC(Cl)CC2OC(=O)c2ccc(C)cc2)cc1` (stereo not given), for which the T/C reads like this: (dose: 50.0 mg/kg/injection, schedule: Q04DX003 (ip), vehicle: saline) 107 % of control; under setting [4], 102 % of control; under setting [7], 91 % of control; under setting [8], 98 % of control.

For the compound `CC(C)C1(O)C2C3CCC(C3)C2C(=O)C2C3CCC(C3)C21` (stereo not given), the T/C runs as follows: (dose: 50.0 mg/kg/injection, schedule: Q01DX009 (ip), vehicle: saline with Tween-80) 96 % of control; under setting [9], 93 % of control; under setting [10], 93 % of control.

Take `O=C(O)c1ccccc1N=Cc1ccccc1O.[Co]`: the T/C is, setting by setting: under setting [11], 102 % of control; under setting [12], 112 % of control.

For the compound `COc1cc2ccc(C(N)=O)cc2cc1OC`, the T/C runs as follows: under setting [11], 98 % of control; under setting [9], 92 % of control; (dose: 100.0 mg/kg/injection, schedule: Q04DX003 (ip), vehicle: other) 96 % of control; under setting [12], 102 % of control; under setting [10], 95 % of control; (dose: 200.0 mg/kg/injection, schedule: Q04DX003 (ip), vehicle: other) 103 % of control. Further, the T/C is, setting by setting: (dose: 400.0 mg/kg/injection, schedule: Q01DX001 (ip), vehicle: other) 100 % of control; (dose: 400.0 mg/kg/injection, schedule: Q01DX009 (ip), vehicle: saline with Tween-80) 98 % of control; (dose: 400.0 mg/kg/injection, schedule: Q04DX003 (ip), vehicle: other) 103 % of control.

For the origin of these results see PubChem BioAssay AID248 (DTP/NCI, 2004).
